Assay results from patent US12049439B2 (OrsoBio, Inc., priority 2018, dated 2024).
pEC50: −log10 of the molar value.

Test system: PC-3 cells
Experiment: PC-3 Oxygen Rate Consumption (OCR) Assay
Assay type: cell-based
Conditions: Homo sapiens, 0.05 h, medium with 2% FBS, OCR at 3-min post-injection normalized to % increase over DMSO-treated cells, concentration for half-maximal OCR increase, read-out: EC50-PC3-OCR-FBS-3min
Outline: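 Oxygen consumption read on Seahorse XFe96: three basal measurements, then compound injection and 10 cycles over 30 min. EC50 defined as concentration giving half-maximal OCR rise, using 3-min post-injection values as % above DMSO controls, six replicates per treatment, in PC-3 cells in glucose/pyruvate medium.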

**Q.** `CC(C)S(=O)(=O)Nc1ccc(C(F)(F)F)cc1C(=O)NC12CC(C(F)(F)F)(C1)C2` [Example 69, 2-((1-methylethyl)sulfonamido)-5-(trifluoromethyl)-N-(3-(trifluoromethyl)bicyclo[1.1.1]pentan-1-yl)benzamide] was tested. Which pEC50 did it give?
**A.** 6.29

**Q.** `N#CC12CCC(NC(=O)c3cc(C(F)(F)F)ccc3NS(=O)(=O)N3CCC3)(CC1)CC2` [Example 179, 2-(azetidine-1-sulfonamido)-N-(4-cyanobicyclo[2.2.2]octan-1-yl)-5-(trifluoromethyl)benzamide] was tested. Which pEC50 did it give?
**A.** 5.05

**Q.** With `CC(C)(C)S(=O)(=O)Nc1cc(S(F)(F)(F)(F)F)ccc1C(=O)NC12CCC(C#N)(CC1)CC2` [Example 161, N-(4-cyanobicyclo[2.2.2]octan-1-yl)-2-((1,1-dimethylethyl)sulfonamido)-4-(pentafluoro-λ^6-sulfanyl)benzamide] as the compound, how does the pEC50 read?
**A.** 5.96

**Q.** With `N#Cc1ccc(NS(=O)(=O)C2CC2)c(C(=O)NC23CCC(C#N)(CC2)CC3)c1` [Example 124, 5-cyano-N-(4-cyanobicyclo[2.2.2]octan-1-yl)-2-(cyclopropanesulfonamido)benzamide] as the compound, how does the pEC50 read?
**A.** 4.10

**Q.** How did the pEC50 turn out when `CCCS(=O)(=O)Nc1ccc(C(F)(F)F)cc1C(=O)NC12CCC(C#N)(CC1)CC2` [Example 126, N-(4-cyanobicyclo[2.2.2]octan-1-yl)-2-(propylsulfonamido)-5-(trifluoromethyl)benzamide] was run?
**A.** 5.29

**Q.** How did the pEC50 turn out when `CC(C)(C)S(=O)(=O)Nc1ccc(Cl)cc1C(=O)NC12CC(C#N)(C1)C2` [Example 85, 5-chloro-N-(3-cyanobicyclo[1.1.1]pentan-1-yl)-2-((1,1-dimethylethyl)sulfonamido)benzamide] was run?
**A.** 4.90

**Q.** How did the pEC50 turn out when `CN(C)S(=O)(=O)Nc1cc(C(F)(F)F)ccc1C(=O)NC12CCC(C#N)(CC1)CC2` [Example 163, N-(4-cyanobicyclo[2.2.2]octan-1-yl)-2-((N,N-dimethylsulfamoyl)amino)-4-(trifluoromethyl)benzamide] was run?
**A.** 5.42

**Q.** `CN(C)S(=O)(=O)c1ccc(S(=O)(=O)Nc2cc(C(F)(F)F)ccc2C(=O)NC23CC(C#N)(C2)C3)cc1` [Example 42, N-(3-cyanobicyclo[1.1.1]pentan-1-yl)-2-((4-(N,N-dimethylsulfamoyl)phenyl)sulfonamido)-4-(trifluoromethyl)benzamide] was tested. Which pEC50 did it give?
**A.** 4.56

**Q.** `CS(=O)(=O)c1ccc(S(=O)(=O)Nc2cc(Br)ccc2C(=O)NC23CC(C(F)(F)F)(C2)C3)cc1` [Example 46, 4-bromo-2-((4-(methylsulfonyl)phenyl)sulfonamido)-N-(3-(trifluoromethyl)bicyclo[1.1.1]pentan-1-yl)benzamide] was tested. Which pEC50 did it give?
**A.** 5.46

**Q.** With `CP(C)(=O)c1ccc(S(=O)(=O)Nc2cc(C(F)(F)F)ccc2C(=O)NC23CC4CC(CC(C#N)(C4)C2)C3)cc1` [Example 180] as the compound, how does the pEC50 read?
**A.** ≤ 3.70

**Q.** `CC(C)(C)S(=O)(=O)Nc1ccc(Cl)cc1C(=O)NC12CC(c3ccccc3)(C1)C2` [Example 83, 5-chloro-2-((1,1-dimethylethyl)sulfonamido)-N-(3-phenylbicyclo[1.1.1]pentan-1-yl)benzamide] was tested. Which pEC50 did it give?
**A.** 5.27

**Q.** With `CS(=O)(=O)Nc1cc(Br)ccc1C(=O)NC12CC(C(F)(F)F)(C1)C2` [Example 48, 4-bromo-2-(methylsulfonamido)-N-(3-(trifluoromethyl)bicyclo[1.1.1]pentan-1-yl)benzamide] as the compound, how does the pEC50 read?
**A.** 5.24

**Q.** With `CC(C)S(=O)(=O)Nc1cc(C(F)(F)F)ccc1C(=O)NC12CC(C#N)(C1)C2` [Example 60, N-(3-cyanobicyclo[1.1.1]pentan-1-yl)-2-((1-methylethyl)sulfonamido)-4-(trifluoromethyl)benzamide] as the compound, how does the pEC50 read?
**A.** 5.21

**Q.** `CN(C)c1ccc(S(=O)(=O)Nc2cc(C(F)(F)F)ccc2C(=O)NC23CC(C(F)(F)F)(C2)C3)cc1` [Example 102, 2-((4-(dimethylamino)phenyl)sulfonamido)-4-(trifluoromethyl)-N-(3-(trifluoromethyl)bicyclo[1.1.1]pentan-1-yl)benzamide] was tested. Which pEC50 did it give?
**A.** 5.62

**Q.** `CN(C)S(=O)(=O)Nc1ccc(C(F)(F)F)cc1C(=O)NC12CC(C(F)(F)F)(C1)C2` [Example 189, 2-((N,N-dimethylsulfamoyl)amino)-5-(trifluoromethyl)-N-(3-(trifluoromethyl)bicyclo[1.1.1]pentan-1-yl)benzamide] was tested. Which pEC50 did it give?
**A.** 6.29

**Q.** How did the pEC50 turn out when `CC(C)(C)S(=O)(=O)Nc1ccc(C(F)(F)F)cc1C(=O)NC12CCC(C#N)(CC1)CC2` [Example 191, N-(4-cyanobicyclo[2.2.2]octan-1-yl)-2-((1,1-dimethylethyl)sulfonamido)-5-(trifluoromethyl)benzamide] was run?
**A.** 5.75

**Q.** `CS(=O)(=O)Nc1ccc(C(F)(F)F)cc1C(=O)NC12CC(Cl)(C1)C2` [Example 80, N-(3-chlorobicyclo[1.1.1]pentan-1-yl)-2-(methylsulfonamido)-5-(trifluoromethyl)benzamide] was tested. Which pEC50 did it give?
**A.** 5.60

**Q.** With `O=C(NC12CC(C(F)(F)F)(C1)C2)c1ccc(C(F)(F)F)cc1NS(=O)(=O)c1ccc(S(=O)(=O)C(F)F)cc1` [Example 34, 2-((4-((difluoromethyl)sulfonyl)phenyl)sulfonamido)-4-(trifluoromethyl)-N-(3-(trifluoromethyl)bicyclo[1.1.1]pentan-1-yl)benzamide] as the compound, how does the pEC50 read?
**A.** 5.57

**Q.** With `CS(=O)(=O)Oc1ccc(S(=O)(=O)Nc2cc(C(F)(F)F)ccc2C(=O)NC23CC(C(F)(F)F)(C2)C3)cc1` [Example 103, 4-(N-(5-(trifluoromethyl)-2-((3-(trifluoromethyl)bicyclo[1.1.1]pentan-1-yl)carbamoyl)phenyl)sulfamoyl)phenyl methanesulfonate] as the compound, how does the pEC50 read?
**A.** 5.73

**Q.** `O=C(NC12CCC(C(F)(F)F)(CC1)CC2)c1ccc(C(F)(F)F)cc1NS(=O)(=O)C1CCS(=O)(=O)CC1` [Example 230, 2-((1,1-dioxidotetrahydro-2H-thiopyran)-4-sulfonamido)-4-(trifluoromethyl)-N-(4-(trifluoromethyl)bicyclo[2.2.2]octan-1-yl)benzamide] was tested. Which pEC50 did it give?
**A.** 5.25

**Q.** With `N#CC12CCC(NC(=O)c3cc(S(F)(F)(F)(F)F)ccc3NS(=O)(=O)N3CCOCC3)(CC1)CC2` [Example 206, N-(4-cyanobicyclo[2.2.2]octan-1-yl)-2-(morpholine-4-sulfonamido)-5-(pentafluoro-λ^6-sulfanyl)benzamide] as the compound, how does the pEC50 read?
**A.** 5.57

**Q.** With `CS(=O)(=O)CCOc1ccc(S(=O)(=O)Nc2cc(C(F)(F)F)ccc2C(=O)NC23CC(C(F)(F)F)(C2)C3)cc1` [Example 115, 2-((4-(2-(methylsulfonyl)ethoxy)phenyl)sulfonamido)-4-(trifluoromethyl)-N-(3-(trifluoromethyl)bicyclo[1.1.1]pentan-1-yl)benzamide] as the compound, how does the pEC50 read?
**A.** 4.90

**Q.** With `CS(=O)(=O)CCS(=O)(=O)Nc1cc(OC(F)(F)F)ccc1C(=O)NC12CCC(C(F)(F)F)(CC1)CC2` [Example 248, 2-((2-(methylsulfonyl)ethyl)sulfonamido)-4-(trifluoromethoxy)-N-(4-(trifluoromethyl)bicyclo[2.2.2]octan-1-yl)benzamide] as the compound, how does the pEC50 read?
**A.** 5.24

**Q.** With `Cc1ccc(C(=O)NC23CC(C(F)(F)F)(C2)C3)c(NS(=O)(=O)c2ccncc2)c1` [Example 65, 4-methyl-2-(pyridine-4-sulfonamido)-N-(3-(trifluoromethyl)bicyclo[1.1.1]pentan-1-yl)benzamide] as the compound, how does the pEC50 read?
**A.** 4.66

**Q.** `CS(=O)(=O)Nc1ccc(C(F)(F)F)cc1C(=O)NC12CC(C(F)(F)F)(C1)C2` [Example 166, 2-(methylsulfonamido)-5-(trifluoromethyl)-N-(3-(trifluoromethyl)bicyclo[1.1.1]pentan-1-yl)benzamide] was tested. Which pEC50 did it give?
**A.** 5.97

**Q.** How did the pEC50 turn out when `Cc1ccc(C(=O)NC23CC(C(F)(F)F)(C2)C3)c(NS(=O)(=O)C(C)C)c1` [Example 61, 4-methyl-2-((1-methylethyl)sulfonamido)-N-(3-(trifluoromethyl)bicyclo[1.1.1]pentan-1-yl)benzamide] was run?
**A.** ≤ 4.00

**Q.** `O=C(NC12CCC(C(F)(F)F)(CC1)CC2)c1ccc(F)cc1NS(=O)(=O)N1CCS(=O)(=O)CC1` [Example 231, 2-((1,1-dioxidothiomorpholine)-4-sulfonamido)-4-fluoro-N-(4-(trifluoromethyl)bicyclo[2.2.2]octan-1-yl)benzamide] was tested. Which pEC50 did it give?
**A.** 5.33

**Q.** How did the pEC50 turn out when `N#CC12CCC(NC(=O)c3cc(C(F)(F)F)ccc3NS(=O)(=O)N3CCCC3)(CC1)CC2` [Example 130, N-(4-cyanobicyclo[2.2.2]octan-1-yl)-2-(pyrrolidine-1-sulfonamido)-5-(trifluoromethyl)benzamide] was run?
**A.** 5.33

**Q.** How did the pEC50 turn out when `CN(C)S(=O)(=O)Nc1ccc(S(F)(F)(F)(F)F)cc1C(=O)NC12CCC(C#N)(CC1)CC2` [Example 205, N-(4-cyanobicyclo[2.2.2]octan-1-yl)-2-((N,N-dimethylsulfamoyl)amino)-5-(pentafluoro-λ^6-sulfanyl)benzamide] was run?
**A.** 5.92

**Q.** With `Cc1ncc(S(=O)(=O)Nc2cc(C(F)(F)F)ccc2C(=O)NC23CC(C(F)(F)F)(C2)C3)s1` [Example 62, 2-((2-methylthiazole)-5-sulfonamido)-4-(trifluoromethyl)-N-(3-(trifluoromethyl)bicyclo[1.1.1]pentan-1-yl)benzamide] as the compound, how does the pEC50 read?
**A.** 5.82

**Q.** With `O=C(NC12CC(C(F)(F)F)(C1)C2)c1ccccc1NS(=O)(=O)C(F)(F)F` [Example 144, N-(3-(trifluoromethyl)bicyclo[1.1.1]pentan-1-yl)-2-((trifluoromethyl)sulfonamido)benzamide] as the compound, how does the pEC50 read?
**A.** 4.73

**Q.** How did the pEC50 turn out when `O=C(NC12CC(C(F)(F)F)(C1)C2)c1cc(C(F)(F)F)ccc1NS(=O)(=O)N1CCS(=O)(=O)CC1` [Example 193, 2-((1,1-dioxidothiomorpholine)-4-sulfonamido)-5-(trifluoromethyl)-N-(3-(trifluoromethyl)bicyclo[1.1.1]pentan-1-yl)benzamide] was run?
**A.** 5.00

Same assay, conditions: medium with 2% FBS, OCR at 3-min post-injection normalized to % increase over DMSO-treated cells, concentration for half-maximal OCR increase, read-out: EC50-PC3-OCR-FBS-3min

**Q.** How did the pEC50 turn out when `CS(=O)(=O)Nc1c(F)cccc1C(=O)NC12CC(C(F)(F)F)(C1)C2` [Example 145, 3-fluoro-2-(methylsulfonamido)-N-(3-(trifluoromethyl)bicyclo[1.1.1]pentan-1-yl)benzamide] was run?
**A.** ≤ 4.00
